# Where “and” joins values, the source holds several entries; their conditions need not be identical. Equal values may be shown once. Read-outs that look alike come from different tables or passages of the source.
# Columns and labels:
# Spodoptera litura [1] = test: whole plant or invertebrate; format: in vivo; details: Spodoptera litura
# Procedure: After an air drying process, third instar larvae were released thereto. […] The test was performed in duplicate.
# (§1) Method for Judging Synergistic Effects
# Aphis gossypii = test: whole plant or invertebrate; format: in vivo; details: Aphis gossypii
# Procedure: The test was performed in duplicate.
# as §1
# Laodelphax striatellus = test: Test Example 14 Test with Laodelphax striatellus by soil irrigation treatment (mixture with paddy herbicide); format: in vivo; details: five days after release
# Procedure: After standing for three days, second instar larvae were released thereto. […] The test was performed in duplicate.
# [2] = tested on: Nilaparvata lugens resistant population II; test: Reference Test Example 19 Pest control test of Nilaparvata lugens, resistant population II (soil drench); format: in vivo; details: for Insecticidal effects against Nilaparvata lugens (death rate %), Resistant population II: soil drench, six days
# Procedure: (§2) Three days after the treatment, ten second instar larvae of Nilaparvata lugens, which had been collected outdoors and proliferated indoors, were each released to the rice seedling. […] Test in duplicate.
# (§3) Furthermore, for comparison, the test against a species of Nilaparvata lugens which is highly susceptible to imidacloprid was performed by the same method as described above, and the results thereof are shown in Table 45. […] Meanwhile, the death rates of imidacloprid at 0.05 mg/seedling were (susceptible species) 100%, (resistant population I) 38% and (resistant population II) 69%, and the insecticidal effect thereof was also low even at a high dose. From the above results, it became obvious that Compound P212 and Compound 1-20 have high insecticidal effects even against Nilaparvata lugens resistance against imidacloprid.
# (§4) Further, for the origin of test pests, bugs collected outdoors from the Kumamoto prefecture (I) in 2007 and from the Fukuoka prefecture (II) in 2005 as resistant population of Nilaparvata lugens, and bugs collected from the Kagoshima prefecture and then successively reared indoors for a long time as the imidacloprid susceptible population of Nilaparvata lugens were used.
# Chilo suppressalis = format: in vivo; details: for Theoretical value by Colby's equation: Chilo suppressalis; for Mortality of single agent against Chilo suppressalis: soil irrigation, six days after release
# Procedure: After standing for 3 days, second instar larvae were released thereto. […] The test was performed in duplicate.
# as §1
# [3] = tested on: Trialeurodes vaporariorum; test: Reference Test Example 8 Pest control test of Trialeurodes vaporariorum (leaf disk spray on eggs); format: in vivo; details: foliar
# Description: Adult greenhouse whiteflies were released to a cucumber in pot culture and allowed to lay eggs overnight. […] Test in duplicate. Mortality of larvae (%)={(number of eggs laid−number of survived larvae)/number of eggs laid)}×100
# Nephotettix cincticeps = test: Reference Test Example 7 Pest control test of Nephotettix cincticeps (foliar treatment, single agent); format: in vivo; details: 96 h
# Description: (§5) After an air drying process, second instar larvae were released thereto. […] Test in duplicate.
# [4] = tested on: Frankliniella occidentalis; test: whole plant or invertebrate; details: Frankliniella occidentalis
# Procedure: After an air drying process, first instar larvae were released thereto. Thereafter, the larvae were left to stand in a thermostatic chamber (16 hours of light period-8 hours of dark period) at 25° C. […] The test was performed in duplicate. Mortality of larvae (%)={number of dead larvae/(number of survived larvae+number of dead larvae)}×100
# (A: 100−(mortality of larvae or adults when treated only with Compound P212)
# B: 100−(mortality of larvae or adults when treated with only the insecticide imidacloprid, dinotefuran, or acetamiprid))
# as §1
# When the mortality against Frankliniella occidentalis in the case of a mixture with another agent exceeded the theoretical value given by Colby's equation, a synergistic effect was judged to be present.
# Spodoptera litura [5] = test: Reference Test Example 2 Pest control test of Spodoptera litura (foliar treatment, single agent); format: in vivo; details: 72 h
# Description: After an air drying process, third instar larvae were released thereto. […] Test in duplicate.
# Naranga aenescens = format: in vivo
# Procedure: After standing for 3 days, first instar larvae were released thereto. […] The test was performed in duplicate.
# as §1
# Oulema oryzae = test: Reference Test Example 12 Pest control test of Oulema oryzae (topical application); format: in vivo; details: throughput of 0.5 μg/head; adults; forty eight hours after the treatment
# Procedure: 1 μL(/head) of a drug solution of the compound of Formula (I) prepared at a predetermined concentration with acetone was topically applied and treated to the back of adults collected outdoors by a micro syringe. After the drug treatment, the adults were transferred to rice seedlings and left to stand in a thermostatic chamber at 25° C. so as to obtain 5 heads per stem. […] Test in duplicate. Mortality of adults (%)={number of dead adults/(number of survived adults+number of dead adults)}×100
# Plutella xylostella [6] = test: Reference Test Example 1 Pest control test of Plutella xylostella (foliar treatment, single agent); format: in vivo; details: Plutella xylostella, foliar, 72 h
# Description: as §5
# [7] = tested on: Nilaparvata lugens resistant population I; test: Reference Test Example 19 Pest control test of Nilaparvata lugens, resistant population I (soil drench); format: in vivo; details: for Insecticidal effects against Nilaparvata lugens (death rate %), Resistant population I: soil drench, six days
# Procedure: as §2, §3, §4
# Sogatella furcifera = test: Reference Test Example 6 Pest control test of Sogatella furcifera (foliar treatment, single agent); format: in vivo; details: 96 h
# Description: as §5
# Plutella xylostella [8] = test: whole plant or invertebrate; format: in vivo
# Procedure: (§6) After an air drying process, second instar larvae were released thereto. […] The test was performed in duplicate.
# as §1
# Laodelphax striatella = test: whole plant or invertebrate; format: in vivo
# Procedure: as §6, §1
# Rhizoctonia solani = test: Test Example 12 Test of control of rice sheath blight (Rhizoctonia solani); format: in vivo; details: single agent 50 ppm; foliar spray; six days after inoculation
# [9] = tested on: Nilaparvata lugens susceptible species (highly susceptible to imidacloprid); test: Reference Test Example 19 Pest control test of Nilaparvata lugens, imidacloprid susceptible species (soil drench); format: in vivo; details: for Insecticidal effects against Nilaparvata lugens (death rate %), Susceptible population: soil drench, six days
# Procedure: as §2, §3, §4
# [10] = foliar, 72 h, read-out: Mortality of single agent against Frankliniella occidentalis
compound,measurement,setting,value
"O=C(N=c1ccccn1Cc1ccc(Cl)nc1)C(F)(F)F [Compound P212, N-[1-((6-chloropyridin-3-yl)methyl)pyridin-2(1H)-ylidene]-2,2,2-trifluoroacetamide]",mortality at 50 ppm,"Spodoptera litura [1]; foliar, 72 h, read-out: Mortality of single agent against Spodoptera litura, single agent 50 ppm, cabbage leaf disk spray, three days",10%
same,Theoretical value by Colby's equation,Spodoptera litura [1]; single agent 50 ppm (other component 0),10%
same,mortality at 0.313 ppm,"Aphis gossypii; foliar, 72 h, read-out: Mortality of single agent against Aphis gossypii",45%
same,Theoretical value by Colby's equation,Aphis gossypii; single agent 0.313 ppm (other component 0),45%
same,Mortality of larvae (Laodelphax striatellus),Laodelphax striatellus; single agent 0.005 mg/seedling,0%
same,Mortality of larvae (Laodelphax striatellus),Laodelphax striatellus; single agent 0.01 mg/seedling,100%
same,death rates of larvae,"[2]; resistant population II, 0.005 mg/seedling, six days after the release",100%
same,"Insecticidal effects against Nilaparvata lugens (death rate %), Resistant population II",[2]; throughput 0.005 mg/seedling,100%
same,"Insecticidal effects against Nilaparvata lugens (death rate %), Resistant population II",[2]; throughput 0.05 mg/seedling,100%
same,Theoretical value by Colby's equation,Chilo suppressalis; single agent 0.002 mg/seedling (other component 0),40%
same,Theoretical value by Colby's equation,Chilo suppressalis; single agent 0.01 mg/seedling (other component 0),33%
same,Mortality of single agent against Chilo suppressalis,Chilo suppressalis; single agent 0.002 mg/seedling,40%
same,Mortality of single agent against Chilo suppressalis,Chilo suppressalis; single agent 0.01 mg/seedling,33%
same,mortality at 100 ppm,[3],≥ 80%
same,mortality at 100 ppm,Nephotettix cincticeps,≥ 80%
same,mortality at 10 ppm,[4]; [10],69%
same,mortality at 20 ppm,[4]; [10],70%
same,Theoretical value by Colby's equation,[4]; single agent 10 ppm (other component 0),69%
same,Theoretical value by Colby's equation,[4]; single agent 20 ppm (other component 0),70%
same,mortality at 500 ppm,Spodoptera litura [5],≥ 80%
same,Theoretical value by Colby's equation,"Naranga aenescens; Naranga aenescens, single agent 0.01 mg/seedling (other component 0)",60%
same,Mortality of single agent against Naranga aenescens,"Naranga aenescens; single agent 0.01 mg/seedling, soil irrigation, five days after release",60%
same,mortality,Oulema oryzae,≥ 80%
same,mortality at 100 ppm,Plutella xylostella [6],≥ 80%
same,death rates of larvae,"[7]; resistant population I, 0.005 mg/seedling, six days after the release",95%
same,"Insecticidal effects against Nilaparvata lugens (death rate %), Resistant population I",[7]; throughput 0.005 mg/seedling,95%
same,"Insecticidal effects against Nilaparvata lugens (death rate %), Resistant population I",[7]; throughput 0.05 mg/seedling,100%
same,mortality at 100 ppm,Sogatella furcifera,≥ 80%
same,mortality at 1 ppm,"Plutella xylostella [8]; Plutella xylostella, foliar, 72 h, read-out: Mortality of single agent against Plutella xylostella, single agent 1.0 ppm, cabbage leaf disk spray, three days",40%
same,mortality at 1.25 ppm,"Plutella xylostella [8]; Plutella xylostella, foliar, 72 h, read-out: Mortality of single agent against Plutella xylostella, single agent 1.25 ppm, cabbage leaf disk spray, three days",0%
same,mortality at 2 ppm,"Plutella xylostella [8]; Plutella xylostella, foliar, 72 h, read-out: Mortality of single agent against Plutella xylostella, single agent 2.0 ppm, cabbage leaf disk spray, three days",60%
same,Theoretical value by Colby's equation,"Plutella xylostella [8]; Plutella xylostella, single agent 1.0 ppm (other component 0)",40% and 30%
same,Theoretical value by Colby's equation,"Plutella xylostella [8]; Plutella xylostella, single agent 1.25 ppm (other component 0)",0%
same,Theoretical value by Colby's equation,"Plutella xylostella [8]; Plutella xylostella, single agent 2.0 ppm (other component 0)",60% and 50%
same,Mortality of single agent against Plutella xylostella,"Plutella xylostella [8]; single agent 1.0 ppm, cabbage leaf disk spray, three days",30%
same,Mortality of single agent against Plutella xylostella,"Plutella xylostella [8]; single agent 2.0 ppm, cabbage leaf disk spray, three days",50%
same,Theoretical value by Colby's equation,"Laodelphax striatella; Laodelphax striatella foliar, single agent 0.625 ppm (other component 0)",95%
same,mortality at 0.625 ppm,"Laodelphax striatella; Laodelphax striatellus, foliar, 72 h, read-out: Mortality of single agent against Laodelphax striatella",95%
same,"Preventive value (Sheath blight test, lesion height)",Rhizoctonia solani,14 and 9
same,death rates of larvae,"[9]; susceptible species, 0.005 mg/seedling, six days after the release",100%
same,"Insecticidal effects against Nilaparvata lugens (death rate %), Susceptible population",[9]; throughput 0.005 mg/seedling,100%
same,"Insecticidal effects against Nilaparvata lugens (death rate %), Susceptible population",[9]; throughput 0.05 mg/seedling,100%

# From patent US11771086B2, “Pest control composition including novel iminopyridine derivative” (priority 2012, dated 2023)
